Measurements reported in article PMC10113378, “Synthesis, in vitro α-glucosidase inhibitory activities, and molecular dynamic simulations of novel 4-hydroxyquinolinone-hydrazones as potential antidiabetic agents” (Scientific Reports, 2023).
Where two headings read alike, the source gives them in different places.

Legend:
[1] = target: T1, α-glucosidase enzyme (EC3.2.1.20, Saccharomyces cerevisiae) (Saccharomyces cerevisiae, UniProt P53341); assay: biochemical; conditions: mean ± SD; substrate p-nitrophenyl glucopyranoside 4 mM, pH 6.8, 37 °C; read-out: α-Glucosidase inhibition IC50
T1 construct: purchased Sigma-Aldrich
T1 sequence (P53341 whole entry): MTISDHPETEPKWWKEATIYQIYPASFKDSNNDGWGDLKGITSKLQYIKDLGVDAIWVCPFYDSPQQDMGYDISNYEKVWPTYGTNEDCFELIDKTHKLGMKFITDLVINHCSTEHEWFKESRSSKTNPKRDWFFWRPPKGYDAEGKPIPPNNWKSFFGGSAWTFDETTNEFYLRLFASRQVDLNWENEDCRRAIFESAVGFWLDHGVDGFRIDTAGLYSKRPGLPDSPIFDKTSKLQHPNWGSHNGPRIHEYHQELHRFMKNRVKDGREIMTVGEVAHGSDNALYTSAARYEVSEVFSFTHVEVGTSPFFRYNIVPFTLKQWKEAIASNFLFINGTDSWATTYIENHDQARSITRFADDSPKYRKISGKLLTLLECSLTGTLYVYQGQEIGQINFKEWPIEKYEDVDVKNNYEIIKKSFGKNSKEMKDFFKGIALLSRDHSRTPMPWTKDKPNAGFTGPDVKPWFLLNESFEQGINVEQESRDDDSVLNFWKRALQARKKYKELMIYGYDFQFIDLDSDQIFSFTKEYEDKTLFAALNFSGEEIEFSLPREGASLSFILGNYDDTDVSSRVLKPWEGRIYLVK
Experimental: α-glucosidase enzyme (EC3.2.1.20, Saccharomyces cerevisiae, 20 U/mg) and substrate (p-nitrophenyl glucopyranoside) were purchased from Sigma-Aldrich. 1 mg of α-glucosidase was dissolved in potassium phosphate buffer (50 mM, pH = 6.8) to obtain the initial activity of 1 U/ml. Then, 20 µl of this enzyme solution was incubated with 135 µl of potassium phosphate buffer and 20 µl of test compound at various concentrations in DMSO. […] The percentage of inhibition for each entry was calculated by using the following formula: %Inhibition=Abscontrol-Abssample/Abscontrol×100.
IC50 values were obtained from the nonlinear regression curve using the Logit method[28],[29].

[2] = target: T2, α-glucosidase (Saccharomyces cerevisiae, UniProt P53341); assay: Enzyme kinetic studies (Lineweaver–Burk plot, secondary plot); format: biochemical; conditions: for mode of inhibition: Lineweaver–Burk plot, Km increased, Vmax unchanged; for Ki: from plot of Km versus inhibitor concentration, read-out: inhibition constant, Ki
T2 construct: purchased Sigma-Aldrich
T2 sequence (P53341 whole entry): as above
Experimental: A Lineweaver–Burk plot was generated to identify the type of inhibition and the Michaelis–Menten constant (Km) value was determined from the plot between the reciprocal of the substrate concentration (1/[S]) and reciprocal of enzyme rate (1/V) over various inhibitors concentrations[30],[31].

[3] = target: α-glucosidase; conditions: cited from earlier work

| melting point | IC50 [1] | SMILES | other results |
| --- | --- | --- | --- |
| 187 to 189 °C | 436.7 ± 1 µM | O=C(N/N=C/c1cccc(Br)c1)c1c(O)c2ccccc2[nH]c1=O [Compound 6e, (E)-N'-(3-bromobenzylidene)-4-hydroxy-2-oxo-1,2-dihydroquinoline-3-carbohydrazide] |  |
|  |  | O=C(N/N=C/c1ccc(O)c(O)c1)c1ccc2ncccc2c1 [D] | IC50 ([3]; quinoline derivatives, read-out: IC50): 6.2 ± 0.3 µM |
|  |  | O=C(N/N=C/c1c(O)cc(O)cc1O)c1ccc(-c2cc(=O)c3ccccc3o2)cc1 [F] | IC50 ([3]; flavone-hydrazone, read-out: IC50): 15.4 ± 0.22 µM |
|  |  | C[C@H]1O[C@H](O[C@H]2[C@H](O)[C@@H](O)[C@@H](O[C@H]3[C@H](O)[C@@H](O)C(O)O[C@@H]3CO)O[C@@H]2CO)[C@H](O)[C@@H](O)[C@@H]1N[C@H]1C=C(CO)[C@@H](O)[C@H](O)[C@H]1O (some centres unmarked) [Acarbose] | α-glucosidase inhibition ([3]; at 128 μg/mL): 75.55% |
|  |  | Oc1ccc2ccccc2n1 [A, 2-hydroxyquinoline] | IC50 ([3]; Fig. 1): 64.4 ± 1.7 µg/mL |
| 190 to 192 °C | 247 ± 1.1 µM | O=C(N/N=C/c1ccccc1F)c1c(O)c2ccccc2[nH]c1=O [Compound 6b, (E)-N'-(2-fluorobenzylidene)-4-hydroxy-2-oxo-1,2-dihydroquinoline-3-carbohydrazide] |  |
|  |  | O=C(Cc1ccc(Cl)cc1Cl)N/N=C1/C(=O)Nc2cc(Br)ccc21 [E] | IC50 ([3]; isatin-hydrazone structure, recent research (reference number not given), read-out: IC50): 2.2 ± 0.25 µM |
| 179 to 181 °C | 520.2 ± 1.5 µM | O=C(N/N=C/c1ccc(Br)cc1)c1c(O)c2ccccc2[nH]c1=O [Compound 6f, (E)-N'-(4-bromobenzylidene)-4-hydroxy-2-oxo-1,2-dihydroquinoline-3-carbohydrazide] |  |
|  | 195.3 ± 1.2 µM | O=C(N/N=C/c1ccc(F)cc1)c1c(O)nc2ccccc2c1O [Compound 6c, (E)-N'-(4-fluorobenzylidene)-4-hydroxy-2-oxo-1,2-dihydroquinoline-3-carbohydrazide] |  |
|  |  | O=C(N/N=C/c1ccc(O)c(O)c1)c1ccc(-c2nnc(-c3ccc4ncccc4c3)o2)cc1 [C] | IC50 ([3]; quinoline–oxadiazole Schiff bases, read-out: IC50): 2.6 ± 0.01 µM |
| 180 to 182 °C | 136.7 ± 0.5 µM | Cc1ccc(/C=N/NC(=O)c2c(O)c3ccccc3[nH]c2=O)cc1 [Compound 6h, (E)-4-hydroxy-N'-(4-methylbenzylidene)-2-oxo-1,2-dihydroquinoline-3-carbohydrazide] |  |
|  |  | O=C(N/N=C/c1ccc(Cl)cc1)c1ccc(-c2nc3ccccc3s2)cc1 [G] | IC50 ([3]; benzothiazole-bearing benzohydrazide, read-out: IC50): 5.31 ± 0.03 µM |
|  |  | O=C(N/N=C/c1cccc(F)c1)c1ccc2nc(-c3ccccc3)c(-c3ccccc3)nc2c1 [H] | mode of inhibition [3]: competitive mode of inhibition; IC50 ([3]; read-out: IC50): 111 µM |
| 193 to 195 °C | 575.6 ± 0.4 µM | COc1cc(/C=N/NC(=O)c2c(O)c3ccccc3[nH]c2=O)ccc1O [Compound 6o, (E)-4-hydroxy-N'-(4-hydroxy-3-methoxybenzylidene)-2-oxo-1,2-dihydroquinoline-3-carbohydrazide] |  |
|  | 382.6 ± 0.9 µM | O=C(N/N=C/c1ccccc1)c1c(O)nc2ccccc2c1O [Compound 6a, (E)-N'-benzylidene-4-hydroxy-2-oxo-1,2-dihydroquinoline-3-carbohydrazide] |  |
| 186 to 188 °C | 196.3 ± 0.7 µM | O=C(N/N=C/c1cccc(O)c1)c1c(O)c2ccccc2[nH]c1=O [Compound 6k, (E)-4-hydroxy-N'-(3-hydroxybenzylidene)-2-oxo-1,2-dihydroquinoline-3-carbohydrazide] |  |
| 177 to 179 °C | 154.8 ± 0.1 µM | O=C(N/N=C/c1ccccc1O)c1c(O)c2ccccc2[nH]c1=O [Compound 6j, (E)-4-hydroxy-N'-(2-hydroxybenzylidene)-2-oxo-1,2-dihydroquinoline-3-carbohydrazide] |  |
| 189 to 191 °C | 259 ± 1 µM | COc1ccc(/C=N/NC(=O)c2c(O)c3ccccc3[nH]c2=O)cc1 [Compound 6i, (E)-4-hydroxy-N'-(4-methoxybenzylidene)-2-oxo-1,2-dihydroquinoline-3-carbohydrazide] |  |
| 185 to 187 °C | 187.8 ± 0.3 µM | O=C(N/N=C/c1ccc(O)cc1O)c1c(O)c2ccccc2[nH]c1=O [Compound 6n, (E)-N'-(2,4-dihydroxybenzylidene)-4-hydroxy-2-oxo-1,2-dihydroquinoline-3-carbohydrazide] |  |
| 194 to 196 °C | 131.6 ± 0.3 µM | O=C(N/N=C/c1ccc(Cl)cc1)c1c(O)c2ccccc2[nH]c1=O [Compound 6d, (E)-N'-(4-chlorobenzylidene)-4-hydroxy-2-oxo-1,2-dihydroquinoline-3-carbohydrazide] |  |
| 208 to 210 °C | 120.5 ± 0.8 µM | O=C(N/N=C/c1ccc([N+](=O)[O-])cc1)c1c(O)c2ccccc2[nH]c1=O [Compound 6g, (E)-4-hydroxy-N'-(4-nitrobenzylidene)-2-oxo-1,2-dihydroquinoline-3-carbohydrazide] |  |

| SMILES | melting point | IC50 [1] | other results |
| --- | --- | --- | --- |
| O=C(N/N=C/c1cc(Br)ccc1O)c1c(O)c2ccccc2[nH]c1=O [Compound 6l, (E)-N'-(5-bromo-2-hydroxybenzylidene)-4-hydroxy-2-oxo-1,2-dihydroquinoline-3-carbohydrazide] | 171 to 173 °C | 94.2 ± 1 µM | mode of inhibition [2]: competitive inhibition; Ki [2]: 92 µM |
| O=C(N/N=C/c1cc([N+](=O)[O-])ccc1O)c1c(O)c2ccccc2[nH]c1=O [Compound 6m, (E)-4-hydroxy-N'-(2-hydroxy-5-nitrobenzylidene)-2-oxo-1,2-dihydroquinoline-3-carbohydrazide] | 198 to 200 °C | 93.5 ± 0.6 µM | mode of inhibition [2]: competitive inhibition; Ki [2]: 93 µM |
